Laboratory results as given in US11565003B2, “Mechanical opening of lipid bilayers by molecular nanomachines” (William Marsh Rice University, priority 2016, dated 2023).

Assays:
HEK293 cells = experiment: Whole cell patch clamp electrophysiology; type: cell-based, human
Protocol: FIGS. 16A-B show whole-cell patch clamp studies of the dynamic effects of UV-induced molecular mechanical action of compound 3 upon HEK293 cells. Also shown are control studies using compound 3 without UV activation, UV-exposed rotor-free control molecule 5, and no molecular additives x. Compounds 3 and 5 were used at 1.0 μM concentrations. […] Similarly, the rotor-free compound 5, and no molecular additive x, show no inward currents during UV illumination (center two traces). Cells were held at −70 mV in voltage clamp mode and UV exposure began 15 seconds after the start of the recording. Each recording is a biological replicate and all traces are shown (n=4 recordings from different cells for 3+UV; n=3 recordings from different cells for each other condition). […] The white arrows (lower right image) highlight membrane blebbing that appears only in the cells treated with UV-activated compound 3. The scale bar represents 10 μm and is applicable for each micrograph.
The dynamic effects of nanomechanical action upon cellular membranes were then studied through the whole cell patch clamp electrophysiology of human embryonic kidney 293 cells (HEK293) commonly used for electrophysiological interrogation. […] These inward currents were not observed in the absence of UV illumination or during UV illumination of non-rotor-bearing control 5 or UV illumination of untreated cells (FIG. 16A).

PC-3 cells [1] = experiment: Two-photon near-infra red activation, PI dye entry, PC-3; type: cell-based, human; settings: PC-3, 1 μM, PI 200 nM
Protocol: (§1) Two-photon microscopy studies of NIH 3T3 cells were executed on a Nikon E600 upright confocal microscope coupled to a tuneable (710-950 nm Coherent MaiTai) multiphoton source operating at (20%) 240 mW power using a 166 lps scan speed and 128×128 pixel frame resolution for MP-illumination. Images (512×512 pixel, 166 lps) were recorded using a 543 nm (1 mW HeNe) laser combined with a 560 nm long-pass filter to record PI (200 nM) fluorescence and follow the onset of induced necrosis.
(§2) Two photon live cell microscopy studies were also executed on a Nikon E600 upright confocal microscope coupled to a tuneable (710-950 nm Coherent MaiTai) multiphoton source operating at (19.8%) 240 mW power at 720 nm using 166 lines/sec scan speed and 128×128 pixel frame resolution for MP-illumination. An oil immersion Nikon IR objective (×60/1.4 NA) was used. Images (512×512 pixel, 166 l/s) were recorded using a 543 nm (1 mW HeNe) laser combined with a 570 nm long-pass filter to record PI dyes (200 nM). Fluorescence was measured as 2 frame averaged images in order to follow the onset of induced necrosis. Necrosis times have been assigned to detectable PI signals in the nucleolus.

PC-3 cells [2] = experiment: UV-activated nanomechanical necrosis, live cell confocal microscopy, PC-3; type: cell-based, human
Protocol: Following the synthetic bilipid vesicle experiments, nanomechanical action upon live cells was studied using confocal microscopy aided by a super-resolution technique called Phase Modulation Nanoscopy. Applicants used two experimental methods. In the first method (Method A), the molecular motors were loaded into the cell media and the imaging was initiated within 5 minutes to 24 hours. In the second method, (Method B), the molecular motors were loaded into the cell media, incubated for 30 minutes to 24 hours, and then washed three times with fresh molecular motor-free media before imaging.
Next, Applicants used the smaller nanomachine, 3. Initial control experiments (blank) were performed without nanomachines being present. UV-induced (355 nm) PC-3 necrosis is not initiated until approximately scan 20 (corresponding to 300 second continuous scanning UV exposure, 400 nJ/voxel total dwell time), characterized by massive disruption and rupture of the mitochondrial network and subsequent well-pronounced auto-fluorescent signal detectable in the nucleoli and nucleus wall (FIG. 7A). This is observable by the nucleoli membrane permeabilization and DNA damage at the onset of necrosis. The UV-induced necrosis reaches final stages at approximately scan 40 (corresponding to 600 seconds) that is consistent with characteristic extracellular membrane rupture and homogenous cytosolic auto-fluorescence, indicating loss of cellular organelle boundaries.
(§3) Microscopy cells were seeded in untreated iBibi 100 μL live cell channels and allowed to grow to 40% to 60% confluence, at 37° C. in 5% CO2. At this stage, the medium was replaced and cells were treated with the studied nanomachines and co-stains as appropriate, with 0.1% DMSO (as detailed above) present in the final imaging medium. For live cell imaging, DMEM/F12 media (10% FBS) lacking phenol red was used from this point onwards. Following incubation, where Method B was used, the channels were washed with live cell imaging media and imaged using a purpose build incubator housing the microscope maintaining 37° C., 5% CO2 and 10% humidity.
(§4) All live cell imaging experiments used either NIH 3T3 mouse skin fibroblast cells, PC-3 cells, a grade 3 human prostate adenocarcinoma, or Chinese hamster ovary cells (CHO). These are all well-studied cell lines with discrete morphological compositions. Each molecular machine was used as a stock solution at 0.10 to 1.00 μM with total dimethyl sulfoxide (DMSO) concentrations not exceeding 0.1% in the final cell media in order to avoid unwanted cell membrane permeabilization, the DMSO being required for solubility of the organic nanomachines. All loading experiments are carried out in a light-suppressed manner and the possibility of induced or accelerated uptake due to interaction between the molecular motors and the applied co-stain has been eliminated using a series of individual and reversed loading experiments.
(§5) All experimental imaging parameters (i.e., laser beam size, confocal pinhole size, laser intensity, line scanning speed, scanning area (field of view, FOV), and line averaging sequences) were kept constant throughout the experiments. The accuracy and errors associated with the establishment of accelerated necrosis are determined based on one dual channel imaging sequence, which takes 15 seconds in total. This imaging sequence has been carefully established using untreated live cells.
Steady state fluorescence images were recorded using a PhMoNa enhanced Leica SP5 II LSCM equipped with a HCX PL APO 63×/1.40 NA LambdaBlue Oil immersion objective. As an initial control experiment to establish the UV-induced cell toxicity threshold, while mitigating voxel exposure and ensuring sufficient laser dwell time, an imaging sequence has been established to monitor cell morphological and physiological changes as a function of time. All experiments used cell-line-determined culture medium containing 0.1% DMSO. […]

NIH 3T3 cells [3] = experiment: UV-activated nanomechanical necrosis, live cell confocal microscopy, NIH 3T3; type: cell-based, mouse; settings: 355 nm UV
Protocol: Following the synthetic bilipid vesicle experiments, nanomechanical action upon live cells was studied using confocal microscopy aided by a super-resolution technique called Phase Modulation Nanoscopy. Applicants used two experimental methods. In the first method (Method A), the molecular motors were loaded into the cell media and the imaging was initiated within 5 minutes to 24 hours. In the second method, (Method B), the molecular motors were loaded into the cell media, incubated for 30 minutes to 24 hours, and then washed three times with fresh molecular motor-free media before imaging. […]
as §3, §4, §5
Steady state fluorescence images were recorded using a PhMoNa enhanced Leica SP5 II LSCM equipped with a HCX PL APO 63×/1.40 NA LambdaBlue Oil immersion objective. As an initial control experiment to establish the UV-induced cell toxicity threshold, while mitigating voxel exposure and ensuring sufficient laser dwell time, an imaging sequence has been established to monitor cell morphological and physiological changes as a function of time. All experiments used cell-line-determined culture medium containing 0.1% DMSO.
The applied 100 Hz detection sequence was based on a bidirectional dual-channel continuous scanning method where a minimalistic non-damaging visible laser light (458 nm, 0.2 mW) is used in conjunction with the above detailed UV exposure. This is set as a 2 line/scan accumulation parallel acquisition sequence that is recorded as a function of time. Studied channels correspond to transmission images and UV-induced mitochondrial auto-fluorescence detected at 460 to 550 nm. Applicants further confirmed that the effectiveness of monitoring the UV-activated nanomechanical action on live cells using a conventional CW mercury-arc excitation source equipped with an epi-fluorescence setup consisting of a Zeiss Axiovert 200M inverted microscope, as discussed in FIGS. 18A-C. […]

NIH 3T3 cells [4] = experiment: Two-photon near-infra red activation, PI dye entry, NIH 3T3; type: cell-based, mouse; settings: NIH 3T3, 1 μM, PI 200 nM
Protocol: as §1, §2

[5] = tested on: synthetic bilipid vesicles; experiment: BODIPY dye release from synthetic bilipid vesicles upon UV illumination; settings: first 15 minutes of UV exposure, 365 nm
Protocol: Premixed and dried synthetic phospholipid blend [1,2-dioleoyl-sn-glycero-3-phosphoethanolamine (DOPE): 1,2-dioleoyl-sn-glycero-3-phospho-L-serine (DOPS): 1,2-dioleoyl-sn-glycero-3-phosphocholine (DOPC) at a ratio of 5:3:2] were stored in a −20° C. freezer before use. To prepare the large unilamellar vesicles (LUVs), 5 mL 0.5× phosphate buffered saline (PBS) at pH 7.4 was added to swell the lipids solution (lipid concentration was 0.25 mg/mL). Then 7 μL of 210 μM BODIPY dye and 2 μL of 50 μM 1 (or 16 in the control experiments) were added to the solution. After incubation for 1 hour at room temperature with occasional vortexing, the lipids formed a cloudy suspension. […] The vesicles were then observed using a home-build confocal fluorescence microscope at 488 nm excitation and 535±50 nm emission.
Due to the highly non-polar nature of compound 1, it prefers to be sorbed in the bilipid membrane (FIG. 3). […] The fluorescence intensity of the BODIPY dye molecules in single vesicles was monitored using a confocal fluorescence microscope by continuously scanning a small area (20×20 μm^2).
As the UV illumination time increased from 0 to 15 minutes, the fluorescence intensity of the vesicles became dimmer (FIG. 4E). […] The average fluorescence intensity drop of 20 vesicles was 70±6% (mean±standard deviation) in the first 15 minutes of UV exposure. […]

[6] = PC-3, Method A (no washing), 355 nm UV

Row | SMILES | membrane currents without UV illumination (in words) (HEK293 cells; HEK293, 1.0 μM, 4 minute recording, no UV) | inward ionic currents during UV illumination (in words) (HEK293 cells; HEK293, Method B, UV 355 nm, 1.0 μM) | radius of membrane blebs (HEK293 cells; HEK293, after UV illumination) | PI dye entry upon two-photon near-infra red illumination (in words) (PC-3 cells [1]) | Time of Full Necrosis (PC-3 cells [2]; [6]) | Time of Initial Necrosis (PC-3 cells [2]; [6]) | % acceleration for full necrosis (PC-3 cells [2]; PC-3, Method A, 355 nm UV, versus UV upon blank cells) | PI entry into cells upon UV-activated membrane disruption (in words) (PC-3 cells [2]; PC-3, propidium iodide 0.10 μM in medium) | Time of Full Necrosis (NIH 3T3 cells [3]; NIH 3T3, Method A (no washing)) | Time of Initial Necrosis (NIH 3T3 cells [3]; NIH 3T3, Method A (no washing)) | % acceleration for full necrosis (NIH 3T3 cells [3]; NIH 3T3, Method A, versus UV upon blank cells) | PI dye entry upon two-photon near-infra red illumination (in words) (NIH 3T3 cells [4]) | average fluorescence intensity drop of BODIPY in 20 vesicles (mean±standard deviation) [5]
1 | C[C@@H]1Cc2ccc3ccccc3c2C1=C1c2cc(C#CCCO)ccc2Sc2ccc(C#CCCO)cc21 (racemic) [Compound 3] | no change in membrane currents | inward ionic currents were produced | 3.8±0.2 μm | resulting in Propidium Iodide (PI) dyes entering | 300 s | 135 s | 50% | PI enters the cell | 300 s | 150 s | 50% | resulting in Propidium Iodide (PI) dyes entering | –
2 | COc1cc(C#Cc2ccc(C3=C4C(C)=C(C#CC56CC7CC(CC(C7)C5)C6)C(C)=[N+]4[B-](F)(F)n4c(C)c(C#CC56CC7CC(CC(C7)C5)C6)c(C)c43)cc2)c(OC)cc1C#Cc1ccc(C2=C3C(C)=C(C#CC45CC6CC(CC(C6)C4)C5)C(C)=[N+]3[B-](F)(F)n3c(C)c(C#CC45CC6CC(CC(C6)C4)C5)c(C)c32)cc1 [Compound 16] | – | – | – | – | – | – | – | – | – | – | – | – | 9%±20%
